Structures can show the parent of a compound that is named as a salt.
Key:
[1] = test system: healthy adult volunteer subjects; experiment: Dose range study, reversal of local anesthesia after maxillary infiltration (Example 5); assay type: in vivo, human
Description: The objectives of this study were to evaluate the safety and efficacy of a range of doses of phentolamine in reversing local anesthesia after a maxillary infiltration. Four groups of eight healthy adult volunteer subjects were given an infiltration of the lateral incisor using one 1.8 ml cartridge of lidocaine 2% with epinephrine 1:100,000. […] Subjects palpated their upper lip, nose, and teeth every five minutes for the next five hours after injections.

healthy adult volunteers = experiment: Reversal of soft-tissue anesthesia after inferior alveolar nerve block, proof-of-principle trial (Example 3); assay type: in vivo, human; conditions: 0.2 mg in 1.8 ml
Description: The objective of this proof-of-principle trial was to evaluate the feasibility of reversing soft-tissue anesthesia by pharmacologically blocking the effects of epinephrine. […] Subjects self-evaluated the return of normal sensation in their lip, chin, tongue, nose, and teeth by palpations at 5-minute intervals starting at 5 minutes before the study drug injection and continuing for approximately 4-5 hours. To avoid biased responding, subjects were told that they could not leave the clinic for 8 hours after the last injection. Responses for soft tissues were categorized as (1) numb (no feeling), (2) feeling of pins and needles, or (3) normal sensation. Responses for teeth were (1) numb (no feeling) or (2) normal sensation. Safety was evaluated through reports of adverse events, measurement of vital signs and two-lead electrocardiograms before, during, and after the injections of anesthetic and study drug, and through pain assessments using visual analog scales.

[2] = Effect of buffer concentration on stability, sodium acetate pH 3.5, 60° C. (HPLC, pH); assay type: physicochemical
Description: (§1) The drug is monitored at a detection wavelength of 232 nm.
Tightly sealed glass vials containing the test solutions were placed in an oven at 40° C. or 60° C. All samples were stored in the dark. Aliquots were removed at designated time points for HPLC analysis and pH measurement. All samples were analyzed without dilution.
In conjunction with HPLC analysis, pH was measured. The measurement was performed using the same samples as used for the HPLC analysis. The pH meter was calibrated using pH 4.00 and 7.00 buffer standards prior to each measurement.
Samples were incubated at 60° C. with scheduled testing performed at day 0, 2, 7, and 14. The various buffer concentrations were prepared by diluting the 50 mM buffer with water and re-examining the pH value to determine if the pH 3.5 was constant. Measurements of pH were performed after HPLC analysis of the samples.

[3] = Narrow-range pH-stability profiling at 60° C. (HPLC); assay type: physicochemical; conditions: 50 mM sodium phosphate, FIG. 2
Description: as §1
All samples were stored in the dark. […] All samples were analyzed without dilution.
The phosphate buffers were prepared as previously described. The samples were analyzed by HPLC for phentolamine concentration and purity at an initial time point and after 2, 7 and 14 days of storage at 60° C. Measurement of sample pH was done after HPLC analysis.
In order to precisely define the most favorable pH, a stronger stressing condition was needed to generate a greater extent of degradation in the lower pH region. For this study, the incubation condition was shifted from 40° C. to 60° C. Since the extent of degradation after fourteen (14) days was still less than twenty percent (20%) in most samples, zero-order rate kinetics was used for the degradation curves (concentration versus time). The calculated rate constant was plotted against pH to provide the narrow-range pH-stability profile.

patients [4] = conditions: 0.5-1.5 mg, patients pretreated with lignocaine admixed with epinephrine; cited from earlier work
human = conditions: solution containing 0.05 mg/ml; cited from earlier work
[5] = Effect of additives on stability, 60° C. (HPLC); assay type: physicochemical; conditions: for Phentolamine Concentration: 10 mM Sodium Acetate, pH 3.5, 60° C.
From the text: as §1
The additives in this study are selected from five groups of injectable excipients namely, tonicity modifiers (NaCl and d-mannitol), metal chelators (EDTA), antioxidants (sodium metabisulfite), complexing agents α-cyclodextrin and niacinamide) and solvents (glycerol and polypropylene glycol). A tonicity modifier is required for adjusting the phentolamine mesylate solution to isotonic. […] Complexing agents were applied in the hope that a possible formation of an inclusion complex (by α-cyclodextrin) or stacking complex (by niacinamide) with phentolamine would modify the rate of hydrolytic degradation of the drug substance. Solvents were added to reduce the dielectric constant of the vehicle and were intended to slow the rate of degradation due to solvent polarity.
The pH value of the solutions was readjusted to pH 3.5, as required. The 25% glycerol (25 g in 100 ml total volume with water) and 25% polypropylene glycol (25 g in 100 ml total volume with water) solutions had their buffer strength adjusted by addition of acetic acid followed by addition of 2 N NaOH for pH adjustment to pH 3.5 followed by addition of the drug to 0.1 mg/ml.
All samples were placed in 10 ml glass serum vials, stoppered with rubber closures with an inert coating (Dalkyo Flurotec by WEST Pharmaceutical), and sealed with flip-top caps after sampling. Vials were placed at 60° C. after the weights were recorded.
Sampling occurred at the initial time point and on days 2, 7, and 14. Vials were weighed, sampled, sealed, re-weighed, and replaced under the selected storage condition until testing at the subsequent time point. Records indicate no significant weight loss during storage.

[6] = test system: healthy adult volunteer subjects; experiment: Dose range study, reversal of local anesthesia after mandibular nerve block (Example 4); assay type: in vivo, human
From the text: The objectives of this study were to evaluate the safety and efficacy of a range of doses of phentolamine in reversing local anesthesia after a mandibular nerve block. […] Subjects palpated their lower lip, chin, tongue, and teeth every five minutes for the next five hours after injections.

patients [7] = conditions: systemic doses, package insert; cited from earlier work
[8] = 0.02 mg, 0.08 mg, 0.4 mg in 1.8 ml
[9] = 0.02 mg, 0.06 mg, 0.4 mg in 1.8 ml

## Cc1ccc(N(CC2=NCCN2)c2cccc(O)c2)cc1 [Phentolamine Mesylate]
[1]; [8]
  adverse events: Adverse events were few and no differences were noted between the active and placebo groups
  electrocardiogram: no abnormalities in the electrocardiogram
[1]; all doses tested (0.02 mg, 0.08 mg, 0.4 mg in 1.8 ml), 40 minutes after lateral incisor infiltration, upper lip, nose, teeth
  duration of anesthesia versus saline placebo (in words): significantly (p<0.01) reduced the duration of anesthesia in each measured tissue
Healthy adult volunteers
  adverse effects: Adverse effects were few and no differences were noted between the active and placebo groups
  electrocardiogram: no abnormalities in the electrocardiogram
Healthy adult volunteers; 60 minutes after inferior alveolar nerve block with 2% lidocaine, 1:100,000 epinephrine, lip, chin, tongue, nose, teeth
  duration of anesthesia versus saline (in words): significantly (p<0.01) reduced the duration of anesthesia in each tissue
[2]; 50 mM Sodium Acetate pH 3.5, 60° C., Day 2
  Phentolamine Concentration: 101 µg/mL
[2]; 5, 10 and 50 mM sodium acetate
  rate of degradation versus un-buffered control (in words): comparable and was an improvement over the un-buffered control
[3]
  pH at which phentolamine was most stable: 3.5
Patients [4]
  duration of anesthesia (in words): reduction in the duration of anesthesia with increasing amounts
human
  reversal of local anesthetic effect (in words): rapidly reverse the effect of a local anesthetic
[5]; Additive Glycerol, 25% w/v, Day 0
  Phentolamine Concentration: 126 µg/mL
[5]; Additive Glycerol, 25% w/v, Day 2
  Phentolamine Concentration: 123 µg/mL
[5]; Additive Glycerol, 25% w/v, Day 14
  Phentolamine Concentration: 115 µg/mL
[5]; Additive Polypropylene glycol, 25% w/v, Day 0
  Phentolamine Concentration: 118 µg/mL
[5]; Additive Polypropylene glycol, 25% w/v, Day 2
  Phentolamine Concentration: 121 µg/mL
[5]; Additive Polypropylene glycol, 25% w/v, Day 7
  Phentolamine Concentration: 113 µg/mL
[5]; Additive Sodium metabisulfite, 0.5 mg/ml, Day 2
  Phentolamine Concentration: 101 µg/mL
[5]; Additive α-Cyclodextrin, 50 mg/ml, Day 0
  Phentolamine Concentration: 102 µg/mL
[5]; d-Mannitol and disodium EDTA
  impact of additives on stability (in words): improve stability based on the rate constant or to exhibit no negative impact based on purity values
[6]; [9]
  adverse events: Adverse events were few and no differences were noted between the active and placebo groups
  electrocardiogram: no abnormalities in the electrocardiogram
[6]; all doses tested (0.02 mg, 0.06 mg, 0.4 mg in 1.8 ml), 60 minutes after inferior alveolar nerve block, lower lip, chin, tongue, teeth
  duration of anesthesia versus saline placebo (in words): significantly (p<0.05) reduced the duration of anesthesia in each measured tissue
Patients [7]
  side effect warning: Myocardial infarction, cerebrovascular spasm, and cerebrovascular occlusion have been reported

From patent US20060257388A1, “Drug delivery systems for stabilized formulations of alpha adrenergic receptor antagonists and the uses thereof” (priority 2005, published 2006)
